The source of these data is PubChem BioAssay AID330 (DTP/NCI, 2004).

This experiment deals with P388 leukemia ip, CD2F1 mice, survival T/C. The experiment in a line: NCI In Vivo Anticancer Drug Screen. Data for tumor model P388 Leukemia (intraperitoneal) in CD2F1 (CDF1) mice. The settings on record: endpoint: median survival time, higher = longer survival. In short, it runs like this: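 Mice carrying the transplanted tumor received test compound or vehicle. Survival was recorded in each group, and the value is the treated-group measurement divided by that of the vehicle-treated control group.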

Where [1] appears, read: dose: 60.0 mg/kg/injection, schedule: Q01DX005 (ip), vehicle: saline with Tween-80.
The mark [2] stands for this setting: dose: 120.0 mg/kg/injection, schedule: Q01DX005 (ip), vehicle: saline with Tween-80.
Where [3] appears, read: dose: 240.0 mg/kg/injection, schedule: Q01DX005 (ip), vehicle: saline with Tween-80.

Values joined by “and” are separate entries in the source; they are usually repeats but may differ in a detail not shown here. Equal entries are not always repeated. Inconclusive results and toxic doses are left out.

In the case of `COc1ccc2c(NCCCCCCCCNc3c4ccccc4nc4cc(OC)ccc34)c3ccccc3nc2c1`, the T/C reads like this: (dose: 0.62 mg/kg/injection, schedule: Q01DX009 (ip), vehicle: other) 176 % of control; (dose: 3.75 mg/kg/injection, schedule: Q01DX009 (ip), vehicle: other) 157 % of control; (dose: 7.5 mg/kg/injection, schedule: Q01DX009 (ip), vehicle: other) 100 % of control.

`CN1C(=O)c2c(ccc3c2OCO3)[C@@]2(C)C(=O)Cc3cc4c(cc3[C@H]12)OCO4`: the T/C is 89 % of control (dose: 6.25 mg/kg/injection, schedule: Q01DX005 (ip), vehicle: Klucel (hydroxypropylcellulose) (HPC)) and 88 % of control (dose: 12.5 mg/kg/injection, schedule: Q01DX005 (ip), vehicle: Klucel (hydroxypropylcellulose) (HPC)).

For `C#CCC(C(=O)OC)N(CC)CC` (stereo unspecified), the T/C is, setting by setting: (dose: 60.0 mg/kg/injection, schedule: Q01DX005 (ip), vehicle: saline) 107 % of control; (dose: 120.0 mg/kg/injection, schedule: Q01DX005 (ip), vehicle: saline) 111 % of control; (dose: 240.0 mg/kg/injection, schedule: Q01DX005 (ip), vehicle: saline) 120 % of control.

With `COc1ccc(C(=O)Cc2nc3nnc(NC(=O)Nc4ccc(Cl)cc4)n3[nH]c2=O)cc1`, the T/C is, setting by setting: under setting [1], 99 % of control; under setting [2], 99 % of control; under setting [3], 100 % of control.

Turning to `CC(=O)OCC1OC(N(C(C)=O)c2nc(Cl)c3cc[nH]c3n2)C(OC(C)=O)C1OC(C)=O` (stereo unspecified), the T/C (dose: 25.0 mg/kg/injection, schedule: Q04DX003 (ip), vehicle: other) was 102 % of control; the T/C (dose: 50.0 mg/kg/injection, schedule: Q04DX003 (ip), vehicle: other) is 105 % of control; the T/C (dose: 100.0 mg/kg/injection, schedule: Q04DX003 (ip), vehicle: other) was 105 % of control; the T/C (dose: 200.0 mg/kg/injection, schedule: Q04DX003 (ip), vehicle: other) is 104 % of control; the T/C (dose: 400.0 mg/kg/injection, schedule: Q04DX003 (ip), vehicle: other) is 108 % of control.

For the molecule `CCOC(=O)c1c(C(=O)OC)nc2n1-c1ccccc1OC2`, the T/C is 97 % of control (dose: 30.0 mg/kg/injection, schedule: Q01DX005 (ip), vehicle: saline with Tween-80); 92 % of control and 94 % of control under setting [1]; 93 % of control under setting [2]; 93 % of control under setting [3].

Take `COc1cc(C2c3cc4c(cc3OC(N3CCCC3)C2C)OCO4)cc(OC)c1OC` (stereo unspecified): the T/C was 90 % of control under setting [1], 93 % of control under setting [2] and 104 % of control under setting [3].

As to `O=C1C(Cl)=C(Cl)C(=O)C(/C=C/N2CCOCC2)=C1Cl`, the T/C (dose: 50.0 mg/kg/injection, schedule: Q01DX001 (ip), vehicle: saline with Tween-80) is 102 % of control and the T/C (dose: 100.0 mg/kg/injection, schedule: Q01DX001 (ip), vehicle: saline with Tween-80) was 98 % of control.

With `O=C(C[N+]12CN3CN(CN(C3)C1)C2)c1ccc(Cl)cc1`, the T/C is 104 % of control (dose: 66.0 mg/kg/injection, schedule: Q04DX003 (ip), vehicle: saline sonified); 122 % of control (dose: 100.0 mg/kg/injection, schedule: Q04DX003 (ip), vehicle: saline sonified); 118 % of control (dose: 150.0 mg/kg/injection, schedule: Q04DX003 (ip), vehicle: saline sonified).

As for `ONc1ncnc2nc[nH]c12`, the T/C reads like this: (dose: 50.0 mg/kg/injection, schedule: Q04DX003 (ip), vehicle: saline with Tween-80) 122 % of control; (dose: 200.0 mg/kg/injection, schedule: Q04DX003 (ip), vehicle: saline sonified) 120 % of control.

Consider `CCN(CC)CCOc1ccc(C(C)=O)cc1`, for which the T/C (dose: 25.0 mg/kg/injection, schedule: Q01DX005 (ip), vehicle: saline with Tween-80) is 99 % of control; the T/C (dose: 50.0 mg/kg/injection, schedule: Q01DX005 (ip), vehicle: saline with Tween-80) was 92 % of control; the T/C (dose: 100.0 mg/kg/injection, schedule: Q01DX005 (ip), vehicle: saline with Tween-80) was 101 % of control.

Regarding `COC(=O)C1=NNC(C(=O)OC)=C(c2ccccc2)C(c2ccccc2)=N1`, the T/C by setting is: (dose: 25.0 mg/kg/injection, schedule: Q01DX009 (ip), vehicle: Klucel (hydroxypropylcellulose) (HPC)) 89 % of control; (dose: 50.0 mg/kg/injection, schedule: Q01DX009 (ip), vehicle: Klucel (hydroxypropylcellulose) (HPC)) 90 % of control; (dose: 100.0 mg/kg/injection, schedule: Q01DX009 (ip), vehicle: Klucel (hydroxypropylcellulose) (HPC)) 93 % of control; (dose: 200.0 mg/kg/injection, schedule: Q01DX009 (ip), vehicle: Klucel (hydroxypropylcellulose) (HPC)) 98 % of control; (dose: 400.0 mg/kg/injection, schedule: Q01DX009 (ip), vehicle: Klucel (hydroxypropylcellulose) (HPC)) 106 % of control.

Regarding `COc1ccc(-c2cc(-c3ccccc3)cc(-c3ccc(OC)cc3)n2)cc1`, the T/C reads like this: (dose: 50.0 mg/kg/injection, schedule: Q01DX005 (ip), vehicle: Klucel (hydroxypropylcellulose) (HPC)) 98 % of control; (dose: 100.0 mg/kg/injection, schedule: Q01DX005 (ip), vehicle: Klucel (hydroxypropylcellulose) (HPC)) 94 % of control; (dose: 200.0 mg/kg/injection, schedule: Q01DX005 (ip), vehicle: Klucel (hydroxypropylcellulose) (HPC)) 92 % of control.

Turning to `CC(/C=C/C=C/C=C/C=C/C=C/C(O)=C1/C(=O)C(CCC(=O)O)N(C)C1=O)=C\C(C)C(OC1CC(O)C(O)C(C)O1)C(C)C` (stereo unspecified), the T/C was 121 % of control (dose: 1.0 mg/kg/injection, schedule: Q01DX005 (ip), vehicle: water); 165 % of control (dose: 2.0 mg/kg/injection, schedule: Q01DX005 (ip), vehicle: water); 112 % of control and 115 % of control (dose: 4.0 mg/kg/injection, schedule: Q01DX005 (ip), vehicle: water); 158 % of control and 163 % of control (dose: 8.0 mg/kg/injection, schedule: Q01DX005 (ip), vehicle: water).

Consider `CCOCC(=O)NC1Cc2cc(OC)c(OC)cc2C1O` (stereo unspecified), for which the T/C is, setting by setting: under setting [1], 100 % of control; under setting [2], 101 % of control; under setting [3], 100 % of control.

Take `COc1cc(NCCCCCCCNC(C)C)c2nccc(C)c2c1`: the T/C runs as follows: (dose: 3.13 mg/kg/injection, schedule: Q01DX009 (ip), vehicle: saline) 105 % of control; (dose: 6.25 mg/kg/injection, schedule: Q01DX009 (ip), vehicle: saline) 102 % of control; (dose: 12.5 mg/kg/injection, schedule: Q01DX009 (ip), vehicle: saline) 99 % of control.

`COc1cc2c(cc1C/C=C/c1cc(OC)c(OC)c(OC)c1)OCO2`: the T/C was 93 % of control under setting [1], 87 % of control under setting [2] and 86 % of control under setting [3].

With `O=C1Cc2nc3ccccc3nc2CC(=O)c2ccccc21`, the T/C is 90 % of control (dose: 50.0 mg/kg/injection, schedule: Q04DX002 (ip), vehicle: saline with Tween-80); 87 % of control (dose: 100.0 mg/kg/injection, schedule: Q04DX002 (ip), vehicle: saline with Tween-80); 90 % of control (dose: 200.0 mg/kg/injection, schedule: Q04DX002 (ip), vehicle: saline with Tween-80).

With `O=C(CSC(=S)N1CCCCC1)c1ccc([N+](=O)[O-])cc1`, the T/C runs as follows: (dose: 12.5 mg/kg/injection, schedule: Q01DX009 (ip), vehicle: distilled water + Tween-80) 98 % of control; (dose: 25.0 mg/kg/injection, schedule: Q01DX009 (ip), vehicle: distilled water + Tween-80) 96 % of control; (dose: 50.0 mg/kg/injection, schedule: Q01DX009 (ip), vehicle: distilled water + Tween-80) 90 % of control; (dose: 100.0 mg/kg/injection, schedule: Q01DX009 (ip), vehicle: distilled water + Tween-80) 90 % of control; (dose: 200.0 mg/kg/injection, schedule: Q01DX009 (ip), vehicle: distilled water + Tween-80) 89 % of control.

For the molecule `N#CC1(NC(=O)C(Cl)Cl)c2ccccc2-c2ccccc21`, the T/C under setting [1] is 100 % of control and the T/C under setting [2] is 93 % of control.

`NC(=O)C(CCO)NC(=O)OCc1ccccc1` (stereo unspecified): the T/C was 101 % of control (dose: 4.0 mg/kg/injection, schedule: Q01DX009 (ip), vehicle: other); 106 % of control (dose: 8.0 mg/kg/injection, schedule: Q01DX009 (ip), vehicle: other); 101 % of control (dose: 16.0 mg/kg/injection, schedule: Q01DX009 (ip), vehicle: other); 101 % of control and 105 % of control (dose: 32.0 mg/kg/injection, schedule: Q01DX009 (ip), vehicle: other); 97 % of control (dose: 64.0 mg/kg/injection, schedule: Q01DX009 (ip), vehicle: other); 88 % of control (dose: 128.0 mg/kg/injection, schedule: Q01DX009 (ip), vehicle: other). The T/C (dose: 256.0 mg/kg/injection, schedule: Q01DX009 (ip), vehicle: other) is 99 % of control.
